This note sets out measurements from ChEMBL document CHEMBL1130616, “Synthesis and biological activity of glutamic acid derivatives” (Bioorg Med Chem Lett, 1998).

The term Emax denotes the greatest response seen or fitted, relative to the assay's reference. As a reminder, the EC50 is the concentration needed to bring the measured effect to its halfway point.

Common to all, as to assay type: functional
Test [1] is filed under the species Rattus norvegicus. Nature of the test: Emax by measuring IP2 accumulation using rat fore brain synaptoneurosomes.
The species entered for test [2] is Rattus norvegicus. Nature of the test: Effective concentration by measuring IP1 accumulation using rat fore brain synaptoneurosomes.
Test [3] is filed under the species Rattus norvegicus. Put plainly: Effective concentration by measuring IP2 accumulation using rat fore brain synaptoneurosomes.
The species named for test [4] is Rattus norvegicus. Put plainly: Emax by measuring IP1 accumulation using rat fore brain synaptoneurosomes.

As for `N[C@@H](CC(C=O)CCCCN1C(=O)c2ccccc2C1=O)C(=O)O.N[C@@H](Cn1oc(=O)[nH]c1=O)C(=O)O` (some centres undefined), the results for the Emax in test [1] and in test [4] were 359% and 216%, respectively. The figures for the EC50 in test [2] and in test [3] were 0.14 µM and 0.27 µM, respectively.
The corresponding values for `N[C@@]1(C(=O)O)CC[C@@H](C(=O)O)C1` are 700%, 284%, 17 µM and 38 µM.
`N[C@@H](CC(C=O)CCCCN1C(=O)c2ccccc2C1=O)C(=O)O.N[C@@]1(C(=O)O)CC[C@@H](C(=O)O)C1` (some centres undefined): the maximum response (Emax) in test [1] worked out at 543%; in test [4], 264%. Further, the results for the EC50 in test [2] and in test [3] were 37 µM and 79 µM, respectively.
The corresponding values for `N[C@@H](Cn1oc(=O)[nH]c1=O)C(=O)O` [QUISQUALATE] are 524%, 240%, 0.1 µM and 0.32 µM.
The corresponding values for `C[C@@](N)(C(=O)O)c1ccc(C(=O)O)cc1.N[C@@H](Cn1oc(=O)[nH]c1=O)C(=O)O` are 358%, 225%, 0.63 µM and 1.34 µM.
The corresponding values for `C[C@@](N)(C(=O)O)c1ccc(C(=O)O)cc1.N[C@@]1(C(=O)O)CC[C@@H](C(=O)O)C1` are 643%, 269%, 109 µM and 224 µM.
